Assay results as given in the supplement of paper PMC11061612.

Key:
Assay in all cases: Bliss excess, mean over the matrix (fraction); higher = more synergy
[1] = test system: ZR-75-30 (Breast Carcinoma)
In short: (§1)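 Bliss excess equals the observed combination effect minus the expected value EA + EB − EA·EB, where EA and EB are the effects of each agent alone. Combination Emax is the second-highest inhibition within the matrix. Inhibition was scaled from CellTiter-Glo 2.0 luminescence, with 0 set by vehicle wells and 1 by blank wells, after 72 hours of two-drug dosing of cells plated in 1536-well plates.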

[2] = test system: NCI-H3118 (Head and Neck Carcinoma)
In short: as §1

[3] = test system: OAW-28 (Ovarian Carcinoma)
In short: as §1

[4] = test system: COR-L88 (Small Cell Lung Carcinoma)
In short: as §1

[5] = test system: Raji (Burkitt's Lymphoma)
In short: as §1

[6] = test system: SUP-M2 (T-Cell Non-Hodgkin's Lymphoma)
In short: as §1

[7] = test system: IA-LM (Non-Small Cell Lung Carcinoma)
In short: as §1

[8] = test system: AM-38 (Glioblastoma)
In short: as §1

[9] = test system: P32-ISH (Burkitt's Lymphoma)
In short: as §1

[10] = test system: SNU-C2B (Colorectal Carcinoma)
In short: as §1

[11] = test system: NCI-H1876 (Small Cell Lung Carcinoma)
In short: as §1

[12] = test system: SNU-423 (Hepatocellular Carcinoma)
In short: as §1

[13] = test system: CPC-N (Small Cell Lung Carcinoma)
In short: as §1

[14] = test system: NCI-H226 (Mesothelioma)
In short: as §1

[15] = test system: RCC-JW (Kidney Carcinoma)
In short: as §1

[16] = test system: SK-CO-1 (Colorectal Carcinoma)
In short: as §1

[17] = test system: BxPC-3 (Pancreatic Carcinoma)
In short: as §1

[18] = test system: P30-OHK (B-Lymphoblastic Leukemia)
In short: as §1

[19] = test system: SKG-IIIa (Cervical Carcinoma)
In short: as §1

[20] = test system: CL-11 (Colorectal Carcinoma)
In short: as §1

Compound	Bliss excess [1]	Bliss excess [2]	Bliss excess [3]	Bliss excess [4]	Bliss excess [5]	Bliss excess [6]	Bliss excess [7]	Bliss excess [8]	Bliss excess [9]	Bliss excess [10]	Bliss excess [11]	Bliss excess [12]	Bliss excess [13]	Bliss excess [14]	Bliss excess [15]	Bliss excess [16]	Bliss excess [17]	Bliss excess [18]	Bliss excess [19]	Bliss excess [20]
CCc1c2c(nc3ccc(O)cc13)-c1cc3c(c(=O)n1C2)COC(=O)[C@]3(O)CC [SN-38] + CN(C)CCCOc1ccc(-c2ccc3ncc4c(c3c2)n(C2CCOCC2)c(=O)n4C)cn1 [AZD0156] (first compound max 0.3 µM, 7x7, partner max 1 µM)	-0.194	0.0864	-0.0053	-0.0636	-0.0003	0.061	-0.0369	0.149	0.0657	0.0089	-0.0111	-0.0165	0.199	-0.0287	0.05	-0.0032	0.0025	0.0969	0.0352	0.117
COc1cccc2c1C(=O)c1c(O)c3c(c(O)c1C2=O)C[C@@](O)(C(=O)CO)C[C@@H]3O[C@H]1C[C@H](N)[C@H](O)[C@H](C)O1 [Doxorubicin] + Cc1cc2ncnn2cc1Nc1ncc2c(n1)n(C1CCOCC1)c(=O)n2C [AZD7648] (first compound max 1 µM, 7x7, partner max 10 µM)	0.003	0.0731	0.0209	-0.0228	0.0979	0.112	0.0044	0.114	0.14	0.0518	0.144	0.0414	0.105	0.0068	0.0352	-0.0163	0.0216	0.129	0.0086	0.0863
CN(CCO)CC[C@H](CSc1ccccc1)Nc1ccc(S(=O)(=O)NC(=O)c2ccc(N3CCC([C@@H](O)c4ccccc4-c4ccc(Cl)cc4)CC3)cc2)cc1S(=O)(=O)C(F)(F)F [AZD4320] + Cc1cc2ncnn2cc1Nc1ncc2c(n1)n(C1CCOCC1)c(=O)n2C [AZD7648] (first compound max 1 µM, 7x7, partner max 10 µM)	-0.0359	-0.0392	-0.0348	0.0052	0.0189	0.036	-0.0482	-0.003	0.0076	-0.0126	0.0162	-0.0311	0.0364	-0.0674	-0.0476	-0.0224	-0.024	0.0216	-0.0614	-0.033
C=CCn1c(=O)c2cnc(Nc3ccc(N4CCN(C)CC4)cc3)nc2n1-c1cccc(C(C)(C)O)n1 [AZD1775] + C[C@@H]1COCCN1C2=NC(=NC(=C2)C3(CC3)[S@](=N)(=O)C)C4=C5C=CNC5=NC=C4 [AZD6738] (first compound max 1 µM, partner max 10 µM)	0.0186	0.0218	0.0012	0.04	0.109	-0.0015	0.0477	0.0618	0.0304	-0.0212	0.0099	-0.0095	0.0072	-0.0327	0.0571	-0.0067	-0.0161	0.0928	-0.0378	-0.0047
NC1(C(=O)N[C@@H](CCO)c2ccc(Cl)cc2)CCN(c2ncnc3[nH]ccc23)CC1 [Capivasertib] + CC(C)n1c(=O)n(C)c2cnc3cc(F)c(-c4ccc(OCCCN5CCCCC5)nc4)cc3c21 [AZD1390] (first compound max 10 µM, 7x7, partner max 0.3 µM)	-0.0471	-0.0572	-0.0674	-0.0746	-0.0461	0.0202	-0.0371	-0.064	0.0131	-0.0775	-0.0805	-0.0583	-0.0435	-0.0484	-0.0366	-0.0173	-0.0361	-0.0289	-0.104	-0.0287
COc1nnc2ccc(N3CCC(c4ccc(OCCN5CCN(C)C(=O)[C@H]5C)cc4)CC3)nn12 [AZD5153] + CCN(CCO)CCCOc1ccc2c(Nc3cc(CC(=O)Nc4cccc(F)c4)[nH]n3)ncnc2c1 [AZD2811] (first compound max 1 µM, 7x7, partner max 1 µM)	-0.0008	-0.0437	-0.0115	-0.0231	0.0314	-0.0132	-0.103	0.039	-0.0959	-0.0223	0.0183	-0.0417	-0.0601	-0.0697	-0.0416	-0.0746	-0.0244	-0.0428	-0.0193	-0.0529
NC1(C(=O)N[C@@H](CCO)c2ccc(Cl)cc2)CCN(c2ncnc3[nH]ccc23)CC1 [Capivasertib] + Cn1cnc2c(F)c(Nc3ccc(Br)cc3Cl)c(C(=O)NOCCO)cc21 [Selumetinib] (first compound max 10 µM, 7x7, partner max 10 µM)	-0.0071	0.091	-0.0034	0.0084	0.0036	0.0835	-0.113	0.0564	0.0288	-0.022	0.0122	0.0248	-0.0381	-0.063	0.0296	0.0107	-0.0091	0.0142	-0.0066	-0.0202
Cn1cnc2c(F)c(Nc3ccc(Br)cc3Cl)c(C(=O)NOCCO)cc21 [Selumetinib] + C[C@@H]1COCCN1C2=NC(=NC(=C2)C3(CC3)[S@](=N)(=O)C)C4=C5C=CNC5=NC=C4 [AZD6738] (first compound max 10 µM, 7x7, partner max 10 µM)	-0.0495	0.0091	0.046	-0.0124	-0.0273	0.012	0.0061	0.104	-0.0153	0.0369	0.0218	-0.0238	-0.046	-0.0364	-0.0393	-0.112	-0.0197	0.012	-0.0275	0.0244
CC1(C)CCC(CN2CCN(c3ccc(C(=O)NS(=O)(=O)c4ccc(NCC5CCOCC5)c([N+](=O)[O-])c4)c(Oc4cnc5[nH]ccc5c4)c3)CC2)=C(c2ccc(Cl)cc2)C1 [Venetoclax] + C1CN(CCC1(C(=O)N[C@@H](CCO)C2=CC=C(C=C2)Cl)N)C3=NC=NC4=C3C=CN4 [Capivasertib] (first compound max 1 µM, 7x7, partner max 3 µM)	-0.0324	-0.0641	-0.0123	-0.0181	-0.0008	-0.0232	-0.057	-0.0742	-0.0094	-0.0833	-0.0952	-0.0386	-0.0365	-0.0673	-0.0312	-0.0247	-0.0171	0.058	-0.0207	-0.0205
COc1cccc(OCCCN)c1-c1cc(Nc2cnc(C#N)cn2)n[nH]1 [Prexasertib] + C[C@@H]1COCCN1C2=NC(=NC(=C2)C3(CC3)[S@](=N)(=O)C)C4=C5C=CNC5=NC=C4 [AZD6738] (first compound max 1 µM, 7x7, partner max 10 µM)	-0.0102	-0.032	0.0102	-0.0483	-0.0472	-0.0061	0.0439	-0.0074	-0.0127	-0.0274	0.0095	0	-0.013	0.01	0.0671	-0.0469	-0.0535	-0.0333	0.0363	-0.058
CC1(C)CCC(CN2CCN(c3ccc(C(=O)NS(=O)(=O)c4ccc(NCC5CCOCC5)c([N+](=O)[O-])c4)c(Oc4cnc5[nH]ccc5c4)c3)CC2)=C(c2ccc(Cl)cc2)C1 [Venetoclax] + CCN(CCO)CCCOc1ccc2c(Nc3cc(CC(=O)Nc4cccc(F)c4)[nH]n3)ncnc2c1 [AZD2811] (first compound max 1 µM, 7x7, partner max 1 µM)	-0.0575	-0.0097	0.0375	0.053	-0.016	0.0126	-0.053	-0.0506	-0.0282	0.0098	0.129	-0.0381	-0.048	-0.0604	-0.0068	0.0082	0.0003	0.0653	0.0225	-0.0137
CN(CCO)CC[C@H](CSc1ccccc1)Nc1ccc(S(=O)(=O)NC(=O)c2ccc(N3CCC([C@@H](O)c4ccccc4-c4ccc(Cl)cc4)CC3)cc2)cc1S(=O)(=O)C(F)(F)F [AZD4320] + C=CCn1c(=O)c2cnc(Nc3ccc(N4CCN(C)CC4)cc3)nc2n1-c1cccc(C(C)(C)O)n1 [AZD1775] (first compound max 1 µM, partner max 1 µM)	-0.0083	-0.0226	0.0652	0.0578	-0.0028	0.0681	0.0161	0.0931	0.107	-0.0143	0.0833	-0.0129	0.0249	-0.025	0.0546	-0.0412	0.0575	0.141	0.0322	-0.0201
Cc1c2c(nn1C)CSCc1cc(n(C)n1)CSc1cc(c3ccccc3c1)OCCCc1c(C(=O)O)n(C)c3c-2c(Cl)ccc13 [AZD5991] + CN(C)CCCOc1ccc(-c2ccc3ncc4c(c3c2)n(C2CCOCC2)c(=O)n4C)cn1 [AZD0156] (first compound max 1 µM, 7x7, partner max 1 µM)	-0.0128	0.0092	0.0335	-0.0129	-0.0213	-0.0012	-0.0333	0.0291	0.0083	0.0051	0.0541	-0.0259	-0.0129	0.0125	-0.0001	-0.0182	0.0229	-0.0042	0.0104	-0.0081
Cc1cc2ncnn2cc1Nc1ncc2c(n1)n(C1CCOCC1)c(=O)n2C [AZD7648] + CN(C)CCCOc1ccc(-c2ccc3ncc4c(c3c2)n(C2CCOCC2)c(=O)n4C)cn1 [AZD0156] (first compound max 10 µM, 7x7, partner max 1 µM)	-0.0321	0.0143	-0.0115	-0.0326	0.0416	0.0397	-0.0133	-0.0139	0.0153	-0.0251	0.0523	-0.0133	0.0326	-0.0393	-0.0158	-0.0486	-0.0034	0.0194	-0.0195	0.0399
